Results from patent US9834558B2, “Substituted bridged urea analogs as sirtuin modulators” (GLAXOSMITHKLINE LLC, priority 2013, dated 2017).
Where two headings read alike, the source gives them in different places.

Biological target: T1, SIRT1 (Homo sapiens, UniProt Q96EB6)
T1 sequence (Q96EB6 1-747): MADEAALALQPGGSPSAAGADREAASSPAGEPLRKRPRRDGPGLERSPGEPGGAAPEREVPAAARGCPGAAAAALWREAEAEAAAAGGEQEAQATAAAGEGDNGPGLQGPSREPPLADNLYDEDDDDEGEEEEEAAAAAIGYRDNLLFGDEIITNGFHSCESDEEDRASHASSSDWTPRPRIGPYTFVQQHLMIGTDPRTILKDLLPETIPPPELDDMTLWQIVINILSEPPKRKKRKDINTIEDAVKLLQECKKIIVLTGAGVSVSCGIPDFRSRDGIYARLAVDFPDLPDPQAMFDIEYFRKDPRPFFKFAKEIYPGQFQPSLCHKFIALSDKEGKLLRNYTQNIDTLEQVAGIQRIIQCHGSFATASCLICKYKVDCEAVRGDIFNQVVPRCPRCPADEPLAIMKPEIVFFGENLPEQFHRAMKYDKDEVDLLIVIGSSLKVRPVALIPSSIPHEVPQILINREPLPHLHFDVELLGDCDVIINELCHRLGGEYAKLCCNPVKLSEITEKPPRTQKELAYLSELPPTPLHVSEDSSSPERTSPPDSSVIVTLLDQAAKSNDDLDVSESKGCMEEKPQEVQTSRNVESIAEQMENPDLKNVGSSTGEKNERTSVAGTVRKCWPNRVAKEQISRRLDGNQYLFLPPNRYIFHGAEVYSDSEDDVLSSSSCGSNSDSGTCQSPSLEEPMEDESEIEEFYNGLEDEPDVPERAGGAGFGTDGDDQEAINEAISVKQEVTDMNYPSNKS
Experiment: Trp mass spectrometry assay of SIRT1 activation
Format: biochemical
Settings: for TRP Activity (EC1.5): EC1.5 = concentration that results in 150% activation of SIRT1
Method in brief: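 N-terminal His-tagged human SIRT1 (10 nM, E. coli BL21(DE3)) with 0.5 μM Ac-RHKK(Ac)W-NH2 peptide and 120 μM βNAD+, 25 min at 25 °C in HEPES pH 7.5, formic acid stop. OAADPR or deacetylated peptide quantified by mass spectrometry; EC1.5 (50% activity increase over control) and Percent Maximum Activation reported.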

[1] = Trp mass spectrometry assay, EC1.5 = concentration of test compound that results in 150% activation of SIRT1
[2] = concentration giving 150% activation of SIRT1, Trp peptide substrate
[3] = Trp mass spectrometry assay, concentration of test compound giving 150% activation of SIRT1
[4] = Trp peptide assay, maximum activity relative to control (100%), read-out: TRP MAX RESP (percent maximum fold activation)

Compound	Tryp AVG EC1.5 (μM) [1]	TRP Activity (EC1.5) (Trp peptide assay)	Emax [4]	further results
O=C(Nc1nnc(C(F)(F)F)s1)N1c2nc(-c3cccc(C(F)(F)F)c3)ccc2N2CC[C@H]1C2 [Example 650]				Tryp AVG EC1.5 (μM) [2]: C (C (EC1.5>25 μM))
O=C(Nc1ccncc1F)N1c2nc(-c3cccc(CC(O)CO)c3)ccc2N2CC[C@H]1C2 (stereo partly shown) [Example 357]				Tryp AVG EC1.5 (μM) [3]: B (B (EC1.5 1-25 μM))
Cc1cc(-c2ccc3c(n2)N(C(=O)Nc2cncnc2)[C@H]2CCCN3C2)ccn1 [(9S)-5-(2-methylpyridin-4-yl)-N-(pyrimidin-5-yl)-1,6,8-triazatricyclo[7.3.1.0 {2,7}]trideca-2(7),3,5-triene-8-carboxamide]		B (B (EC1.5 1-25 μM))	> 150%	
[N-]=[N+]=NCc1cc(N=[N+]=[N-])cc(-c2ccc3c(n2)N(C(=O)Nc2cnccn2)[C@H]2CCN3C2)c1 [Example 808]				Tryp AVG EC1.5 (μM) [2]: A (A (EC1.5<1 μM))
O=C(Nc1ccnc(OC[C@H](O)CO)c1)N1c2nc(-c3cccc(C(F)(F)F)c3)ccc2N2CC[C@H]1C2 [(9S)-N-{2-[(2R)-2,3-dihydroxypropoxy]pyridin-4-yl}-5-[3-(trifluoromethyl)phenyl]-1,6,8-triazatricyclo[7.2.1.0 {2,7}]dodeca-2(7),3,5-triene-8-carboxamide]		A (A (EC1.5<1 μM))	> 150%	
CC(C)C(=O)c1cccc(NC(=O)N2c3nc(-c4cccc(C(F)(F)F)c4)ccc3N3CC[C@H]2C3)c1 [Example 740]				Tryp AVG EC1.5 (μM) [2]: A (A (EC1.5<1 μM))
O=C(Nc1cnccn1)N1c2nc(N3CCOCC3)ccc2N2CC[C@H]1C2 [(9S)-5-(morpholin-4-yl)-N-(pyrazin-2-yl)-1,6,8-triazatricyclo[7.2.1.0 {2,7}]dodeca-2,4,6-triene-8-carboxamide]		B (B (EC1.5 1-25 μM))	> 150%	
Cc1ccc(-c2ccc3c(n2)N(C(=O)Nc2cnccn2)[C@H]2CCN3C2)c(C)n1 [(9S)-5-(2,6-dimethylpyridin-3-yl)-N-(pyrazin-2-yl)-1,6,8-triazatricyclo[7.2.1.0 {2,7}]dodeca-2(7),3,5-triene-8-carboxamide]		B (B (EC1.5 1-25 μM))	> 150%	
CN(C)c1cccc(-c2ccc3c(n2)N(C(=O)Nc2ccccn2)[C@H]2CCCN3C2)c1 [Example 386]				Tryp AVG EC1.5 (μM) [3]: B (B (EC1.5 1-25 μM))
Cn1nccc1-c1ccc2c(n1)N(C(=O)Nc1cnccn1)[C@H]1CCN2C1 [Example 414]				Tryp AVG EC1.5 (μM) [3]: B (B (EC1.5 1-25 μM))
Cc1cc(-c2ccc3c(n2)N(C(=O)Nc2cncc(C)n2)[C@H]2CCCN3C2)ccn1 [(9S)-N-(6-methylpyrazin-2-yl)-5-(2-methylpyridin-4-yl)-1,6,8-triazatricyclo[7.3.1.0 {2,7}]trideca-2(7),3,5-triene-8-carboxamide]		B (B (EC1.5 1-25 μM))	> 150%	
O=C(Nc1cnccn1)N1c2nc(-c3ccnc(C(F)F)c3)ccc2N2CC[C@H]1C2 [(9S)-5-[2-(difluoromethyl)pyridin-4-yl]-N-(pyrazin-2-yl)-1,6,8-triazatricyclo[7.2.1.0 {2,7}]dodeca-2(7),3,5-triene-8-carboxamide]		A (A (EC1.5<1 μM))	> 150%	
Cc1cc(-c2ccc3c(n2)N(C(=O)Nc2cccc4nnc(C)cc24)[C@H]2CCN3C2)ccn1 [(9S)-N-(3-methylcinnolin-5-yl)-5-(2-methylpyridin-4-yl)-1,6,8-triazatricyclo[7.2.1.0 {2,7}]dodeca-2(7),3,5-triene-8-carboxamide]		B (B (EC1.5 1-25 μM))	> 150%	
Cc1cc(-c2ccc3c(n2)N(C(=O)Nc2cnc(C(F)(F)F)cn2)[C@H]2CCN3C2)ccn1 [(9S)-5-(2-methylpyridin-4-yl)-N-[5-(trifluoromethyl)pyrazin-2-yl]-1,6,8-triazatricyclo[7.2.1.0 {2,7}]dodeca-2(7),3,5-triene-8-carboxamide]		C (C (EC1.5>25 μM))	< 150%	
O=C(Nc1ccccn1)N1c2nc(N3CC[C@@H](C(F)(F)F)C3)ccc2N2CC[C@H]1C2 [(9S)-N-(pyridin-2-yl)-5-[(3R)-3-(trifluoromethyl)pyrrolidin-1-yl]-1,6,8-triazatricyclo[7.2.1.0^2,7]dodeca-2,4,6-triene-8-carboxamide]		A (A (EC1.5<1 μM))	> 150%	
N#Cc1cccc(-c2ccc3c(n2)N(C(=O)Nc2cccnc2)[C@H]2CCCN3C2)c1 [Example 350]				Tryp AVG EC1.5 (μM) [3]: A (A (EC1.5<1 μM))
O=C(Nc1cnccn1)N1c2nc(-c3cccc(Cl)c3)ccc2N2CC[C@H]1C2 [Example 101]				Tryp AVG EC1.5 (μM) (Trp peptide substrate, concentration giving 150% activation of SIRT1): A (A (EC1.5<1 μM))
CS(=O)(=O)c1cccc(-c2ccc3c(n2)N(C(=O)Nc2cc(-c4cnco4)ccn2)[C@H]2CCN3C2)c1 [Example 723]				Tryp AVG EC1.5 (μM) [2]: A (A (EC1.5<1 μM))
O=C(Nc1cccnn1)N1c2nc(-c3ccnc(C(F)(F)F)c3)ccc2N2CCC[C@H]1C2 [(9S)-N-(pyridazin-3-yl)-5-[2-(trifluoromethyl)pyridin-4-yl]-1,6,8-triazatricyclo[7.3.1.0 {2,7}]trideca-2(7),3,5-triene-8-carboxamide]		A (A (EC1.5<1 μM))	> 150%	
O=C(Nc1cncc(OC[C@@H](O)CO)n1)N1c2nc(-c3cccc(C(F)(F)F)c3)ccc2N2CC[C@H]1C2 [(9S)-N-{6-[(2S)-2,3-dihydroxypropoxy]pyrazin-2-yl}-5-[3-(trifluoromethyl)phenyl]-1,6,8-triazatricyclo[7.2.1.0 {2,7}]dodeca-2(7),3,5-triene-8-carboxamide]		A (A (EC1.5<1 μM))	> 150%	
Cc1cc(-c2ccc3c(n2)N(C(=O)Nc2cccnn2)[C@H]2CCN3C2)ccn1 [(9S)-5-(2-methylpyridin-4-yl)-N-(pyridazin-3-yl)-1,6,8-triazatricyclo[7.2.1.0 {2,7}]dodeca-2(7),3,5-triene-8-carboxamide]		B (B (EC1.5 1-25 μM))	> 150%	
O=C(Nc1nccc(N2CCNCC2)n1)N1c2nc(-c3cccc(C(F)(F)F)c3)ccc2N2CC[C@H]1C2 [Example 745]				Tryp AVG EC1.5 (μM) [2]: B (B (EC1.5 1-25 μM))
CN1CCN(c2ccnc(NC(=O)N3c4nc(-c5cccc(C(F)(F)F)c5)ccc4N4CC[C@H]3C4)n2)CC1 [Example 742]				Tryp AVG EC1.5 (μM) [2]: A (A (EC1.5<1 μM))
C[C@@H]1CN(c2ccc3c(n2)N(C(=O)Nc2cnccn2)[C@H]2CCN3C2)C[C@H](C)O1 [(9S)-5-[(2R,6S)-2,6-dimethylmorpholin-4-yl]-N-(pyrazin-2-yl)-1,6,8-triazatricyclo[7.2.1.0 {2,7}]dodeca-2(7),3,5-triene-8-carboxamide]		B (B (EC1.5 1-25 μM))	> 150%	

Further lines, with some results ahead:

Tryp AVG EC1.5 (μM) [1]	TRP Activity (EC1.5) (Trp peptide assay)	Emax [4]	Compound	further results
A (A (EC1.5<1 μM))			Cc1cc(-c2ccc3c(n2)N(C(=O)Nc2cccc(-c4cnco4)c2)[C@H]2CCN3C2)ccn1 [Example 480]	
A (A (EC1.5<1 μM))			O=C(Nc1cc(-c2cnco2)ccn1)N1c2nc(-c3cccc(C(F)(F)F)c3)ccc2N2CCC[C@H]1C2 [Example 591]	
B (B (EC1.5 1-25 μM))			Cc1c(-c2ccc3c(n2)C(C(=O)Nc2ccccn2)[C@H]2CCN3C2)cnn1C (stereo partly shown) [Example 531]	Emax (Trp mass spectrometry assay, percent maximum fold activation of SIRT1, read-out: Tryp % Fold Act): > 150%
A (A (EC1.5<1 μM))			O=C(Nc1cccnc1)N1c2nc(-c3cncc(Cl)c3)ccc2N2CC[C@H]1C2 [Example 526]	
B (B (EC1.5 1-25 μM))			Cc1cc(-c2ccc3c(n2)N(C(=O)Nc2ccncn2)[C@H]2CCN3C2)ccn1 [Example 468]	
B (B (EC1.5 1-25 μM))			Cc1ccc(-c2ccc3c(n2)N(C(=O)Nc2cccnn2)[C@H]2CCCN3C2)cn1 [Example 467]	
B (B (EC1.5 1-25 μM))			N#Cc1ccccc1-c1ccc2c(n1)N(C(=O)Nc1ccccn1)[C@H]1CCCN2C1 [Example 449]	
B (B (EC1.5 1-25 μM))			O=C(Nc1cncc(F)c1)N1c2nc(-c3ccnc(N4CC[C@@H](F)C4)c3)ccc2N2CC[C@H]1C2 [Example 464]	
A (A (EC1.5<1 μM))			Cc1cncc(-c2ccc3c(n2)N(C(=O)Nc2cncc(F)c2)[C@H]2CCCN3C2)c1 [Example 509]	
B (B (EC1.5 1-25 μM))			Cc1nc(NC(=O)N2c3nc(-c4cccc(Cl)c4)ccc3N3CCC2CC3)sc1C [Example 569]	
B (B (EC1.5 1-25 μM))			Cc1ccc(-c2ccc(NC(=O)N3c4nc(-c5cccc(C(F)(F)F)c5)ccc4N4CC[C@H]3C4)cc2)o1 [Example 582]	
